Read-outs that look alike come from different tables or passages of the source.
Legend:
immobilized β2-AR = immobilized β2-AR (Homo sapiens, UniProt P07550)
[1] = system: rat tracheal smooth muscle pre-contracted by high K+ solution; assay: Relaxation of isolated rat tracheal strips pre-contracted by high K+ solution, with or without ICI 118551; format: cell-based; conditions: 0.1 μM to 1.0 mM, high K+ (60 mM) pre-contracted
Description: The potential β2-AR-mediating relaxant mechanisms of the compound were also evaluated in the absence and presence of a specific inhibitor. This was performed with the scarification of rats weighing 250–300 g by exsanguination from the abdominal aorta. We collected the tracheal tissues between the larynx and the lungs and immediately immersed them in cold oxygenated Krebs solution (118 mM NaCl, 4.8 mM KCl, 2.5 mM CaCl2, 1.2 mM MgSO4, 25 mM NaHCO3, 1.2 mM KH2PO4, and 9.8 mM glucose; pH 7.4). After the removal of adhesive tissues, we spirally isolated the tracheal segment with three cartilage rings to assay the tracheal strip reactivity. Such strips were mounted onto two L-shaped stainless-steel holders connected with a force–displacement transducer. The isometric tension was determined in a tissue bath by a PowerLab data acquisition system.
We aerated the pre-warmed Krebs solution (37°C) with a gas mixture of 95% O2 and 5% CO2. At initial tests, the tracheal strips with tensions of 1.0-g mass were equilibrated for 60 min. The resulting strips were stimulated with high-potassium (K^+) solution (63 mM NaCl, 60 mM KCl, 2.5 mM CaCl2, 1.2 mM MgSO4, 25 mM NaHCO3, 1.2 mM KH2PO4, and 9.8 mM glucose; pH 7.4) to evoke a contractile response in the presence or absence of ICI 118551 (10 μM). […]

mice trachea = system: mice trachea; set-up: method as in Liu et al., 2007; conditions: ref Liu et al., 2007; cited from earlier work
[2] = Stability of mogroside V in rat plasma (QC samples, HPLC-MS/MS); format: in vitro ADME; conditions: for Short term Stability (%): room temperature 14 h; for Long term Stability (%): −20°C 1 month; for Freeze–thaw Stability (%): three freeze (−20°C) and thaw cycles
Description: The stability of mogroside V in plasma was evaluated at three QC levels in six replicates under varieties of storing and processing conditions. The results of the peak area of QC samples were compared with those from freshly prepared standard samples. The QC samples with recoveries of 85–115% were defined as having good stability under the desired conditions. Short-term stability was assessed after QC samples were saved at room temperature for 14 h. Subsequently, freeze–thaw stability was assessed after three freeze (−20°C) and thaw (room temperature) cycles of QC samples. Long-term stability was examined after QC samples were saved at −20°C for 1 month.

[3] = cited from earlier work
[4] = dose 200 mg/kg, ref Qin et al. (2006); cited from earlier work
[5] = Pharmacokinetic study in rats after oral administration (HPLC-MS/MS); format: in vivo, Sprague–Dawley (SD) rats; conditions: mogroside V 200 mg/kg or LHG extract 12.5 ml/kg
Description: Male Sprague–Dawley (SD) rats (240 ± 20 g) were purchased from the Experimental Animal Center of Xi’an Jiaotong University (Xi’an, China). The animals were maintained in a room under controlled temperature (24 ± 1°C) and humidity (50–70%) with 12-h light/dark cycle. The rats were fed with standard laboratory food and acclimatized to the environment for a week before the experiment. All animals were treated in accordance with the Guide for the Care and Use of Laboratory Animals under the approval of the Animal Experimentation Ethics Committee at Northwest University.
All the plasma samples were analyzed on an Inertsil ODS-3-C18 column (5 μm, 4.6 mm × 150 mm). The mobile phase for quantitative determination of mogroside V in rat plasma consisted of 29% acetonitrile/0.2% (v/v) formic acid at a flow rate of 0.6 ml/min. The injection volume was 20 μl under a detection wavelength of 203 nm.
The optimized mass conditions include the following: capillary voltage of 3,500 V, drying gas of 8 L/min at 350°C, nebulizer pressure of 40 psi at 350°C, and ion scan range of 100–2,000 amu. Under these conditions, multi-reaction monitoring (MRM) mode was carried out to specifically and sensitively detect the mogroside V. The mass transitions were m/z 1,285.6 → 1,123.6 for mogroside V and m/z 931.3 → 637.5 for IS (notoginsenoside R1).
An aliquot of 10 μl of IS working solution was added into an aliquot of 90 μl of plasma samples. Vortexing the mixture for 2.0 min, we centrifuged the plasma for 10 min with a speed of 12,000 rpm at a temperature of 4°C. The supernatant was collected and transferred to another 0.5-ml centrifuge tube and then blow dried with nitrogen. We applied 200 μl of methanol to redissolve it, which was used for analysis.
Eighteen rats were randomly divided into three groups of six for each group, including blank control, mogroside V, and LHG groups. The blank group was orally administered with normal saline. The other two groups were administered with mogroside V at a dose of 200 mg/kg and LHG aqueous extraction at a dose of 12.5 ml/kg (equivalent to 200 mg/kg mogroside V). Blood samples were collected in heparin sodium vacutainers at post-dose 5, 15, 30, 45, 60, 90, 120, 240, 360, 480, and 720 min. The plasma was pre-treated by centrifugation and frozen at −80°C until further analysis. The pharmacokinetic parameters including the area under curve (AUC0–720, and AUC0–∞), the maximum plasma concentration (Cmax), the time to achieve maximum plasma concentration (T max), and the elimination half-life (t 1/2z) were calculated by Drug and Statistics 3.0.0 software (DAS, T. C. M., Shanghai, China). All data were recorded as the mean ± standard deviation (SD), and the 95% confidence interval was also estimated when necessary.

cough of mice = conditions: ref Liu et al., 2007; cited from earlier work
ileum and trachea = system: ileum and trachea; set-up: method as in Liu et al., 2007; conditions: histamine-induced; ref Liu et al., 2007; cited from earlier work
[6] = male, Sprague-Dawley, rat, in vivo, mogroside V in plasma

Sequence of immobilized β2-AR (P07550 whole entry): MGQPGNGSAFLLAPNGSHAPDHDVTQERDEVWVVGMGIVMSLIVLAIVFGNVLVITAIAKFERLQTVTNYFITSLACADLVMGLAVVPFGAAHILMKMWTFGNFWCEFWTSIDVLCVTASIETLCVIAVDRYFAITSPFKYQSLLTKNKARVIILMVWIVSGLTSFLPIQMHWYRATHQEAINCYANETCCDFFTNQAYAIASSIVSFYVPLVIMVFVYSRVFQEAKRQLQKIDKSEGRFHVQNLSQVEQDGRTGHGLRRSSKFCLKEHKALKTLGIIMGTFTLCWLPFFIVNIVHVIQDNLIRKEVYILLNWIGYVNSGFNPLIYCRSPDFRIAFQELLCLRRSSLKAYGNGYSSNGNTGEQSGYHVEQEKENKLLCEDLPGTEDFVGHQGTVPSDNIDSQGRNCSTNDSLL

With O=N[O-].[Na+] [sodium nitrite, Sodium nitrite] the “retention time on immobilized β2-AR column” value (immobilized β2-AR) was 0.7 min.
In the case of C[C@H](CC[C@@H](O[C@@H]1O[C@H](CO[C@@H]2O[C@H](CO)[C@@H](O)[C@H](O)[C@H]2O)[C@@H](O)[C@H](O)[C@H]1O[C@@H]1O[C@H](CO)[C@@H](O)[C@H](O)[C@H]1O)C(C)(C)O)[C@H]1CC[C@@]2(C)[C@@H]3CC=C4[C@@H](CC[C@H](O[C@@H]5O[C@H](CO[C@@H]6O[C@H](CO)[C@@H](O)[C@H](O)[C@H]6O)[C@@H](O)[C@H](O)[C@H]5O)C4(C)C)[C@]3(C)[C@H](O)C[C@]12C [Mogroside V], the “relaxation of tracheal strips” value ([1]; absence of ICI 118551) is given as “concentration-dependent manner”, the “relaxation of tracheal strips” value ([1]; presence of ICI 118551 (10 μM)) is given as “disappeared” and the “phenol red excretion of mice trachea” value (mice trachea) is given as “effective for extending”. For the same compound, the “Short term Stability (%)” value ([2]; rat plasma, 30 ng/ml added) was 94.8%, the “Long term Stability (%)” value ([2]; rat plasma, 30 ng/ml added) was 94.4% and the “Short term Stability (%)” value ([2]; rat plasma, 500 ng/ml added) was 94.8%. For the same compound, the “Freeze–thaw Stability (%)” value ([2]; rat plasma, 500 ng/ml added) was 95.4%, the “Long term Stability (%)” value ([2]; rat plasma, 500 ng/ml added) was 93.8% and the “Short term Stability (%)” value ([2]; rat plasma, 5,000 ng/ml added) was 93.2%. For the same compound, the “Freeze–thaw Stability (%)” value ([2]; rat plasma, 5,000 ng/ml added) was 96.6%, the “Long term Stability (%)” value ([2]; rat plasma, 5,000 ng/ml added) was 92.2% and the “detection in rat plasma” value ([3]; oral administration, dose increased to 5 mg/kg, ref Luo, 2017) was “disappears”. The “detection in rat plasma” value ([3]; tail intravenous injection (1.12 or 2.0 mg/kg) and intraperitoneal administration (1.12 mg/kg), ref Zhou et al., 2018) was “detectable”, the “toxicity after oral administration” value [4] was “nontoxic” and the Cmax [5, 6] was 1330 ng/mL. The Tmax [5, 6] was 45 min, the half-life ([5]; male, Sprague-Dawley, rat, in vivo, mogroside V in plasma, read-out: t1/2z) was 138 ± 13.2 min and the peak plasma concentration [5] was 1,330.6 ± 132.2 ng/ml. For the same compound, the “retention time of LHG extract peak on immobilized β2-AR column, identified as mogroside V” value (immobilized β2-AR; ammonium acetate buffer (5 mM, pH = 7.4), 0.2 ml/min, 203 nm, void time 0.7 min) was 4.3 min, the “cough times of mice” value (cough of mice) was “reducing the cough times” and the “incubation period for cough of mice” value (cough of mice) was “prolonged”. The “spasmodic contraction of the ileum and trachea caused by histamine” value (ileum and trachea) was “obvious capability to antagonize”.
With COc1cc2nc(N3CCN(C(=O)C4CCCO4)CC3)nc(N)c2cc1OC (stereo not drawn) [terazosin] the “retention time on immobilized β2-AR column” value (immobilized β2-AR; mobile phase ammonium acetate (5 mM, pH = 7.4), each injected three times) was 1.0 min.
